Experimental data as given in patent publication US9622472B2, “Molecules that induce disease resistance in plants” (The Regents of the University of California, priority 2013, dated 2017).

Key:
[1] = test system: Hyaloperonospora arabidopsidis (Peronospora); settings: Arabidopsis; Knoth et al. (2009); cited from earlier work
[2] = test system: pathogen-responsive CaBP22^−333::GUS reporter gene; settings: transgenic Arabidopsis; reported in Knoth et al. (2009); cited from earlier work
Pseudomonas syringae = settings: Arabidopsis; Knoth et al. (2009); cited from earlier work
[3] = test system: virulent Peronospora isolate Noco2; assay: Noco2 spore inhibition assay in soil-grown Col-0 seedlings; type: in vivo, Hyaloperonospora arabidopsidis (Peronospora)
Procedure: FIG. 1. Phenyl-imino-methyl-phenol derivatives (PMPs) constitute a large class of new synthetic elicitors. A: Structures of 20 PMP derivatives that were identified by high throughput screening as able to promote expression with the CaBP22 reporter assay. B. CMP199 was further analyzed in the Noco2 spore inhibition assay. Three-week-old soil-grown Col-0 seedlings were spray-infected 24 h after treating with varying concentrations of each synthetic elicitor and then assayed at 7 dpi for spore growth. 100% inhibition=0 spores. The assay was repeated three times with similar results, and the average of those three replicates is shown. DCA=3-5-dicholoroanthranlilic acid; HTC=2-(5-bromo-2-hydroxy-phenyl)-thiazolidine-4-carboxylic acid.
CMP199 (FIG. 1A) was selected for further study to determine whether CMP199 could induce pathogen resistance in soil-grown plants. […] To determine if CMP199 differs from other synthetic elicitors, Col-0 seedlings were treated with DCA or HTC at the indicated concentrations and compared.

## Nc1c(Cl)cc(Cl)cc1C(=O)O [DCA, 3-5-dicholoroanthranlilic acid]
[1]
  disease resistance triggered: fast, strong and transient disease resistance
[2]
  induction of pCaBP22^−333::GUS reporter gene: induce
Pseudomonas syringae
  disease resistance triggered: fast, strong and transient disease resistance

## COc1cccc(N=Cc2cc(Cl)cc(Cl)c2O)c1 [CMP199, 2,4-dichloro-6-[((3-methoxy-phenyl)imino)methyl]-phenol]
[3]; A. thaliana
  induction of disease resistance: able to induce disease resistance in A. thaliana at very low concentration
[3]; Col-0 seedlings, spray-infected 24 h after treating, assayed at 7 dpi, FIG. 1B
  inhibition of Noco2 spores, concentration compared with other synthetic elicitors: much lower concentration than DCA or HTC
[3]; Col-0 sprayed prior to infection, spores 7 days post infection
  concentration giving significantly reduced numbers of Noco2 spores: ≤ 1 µM
